# Patent US20040009485A1, “Cellular arrays for the identification of altered gene expression” (priority 2002, published 2004)
# Legend:
# luxCDABE gene fusions = assay: Retest of nalidixic acid upregulated gene fusions in liquid medium; format: cell-based, E. coli; conditions: for Liquid expt. NA/LB t = 2 hr: at conc of max induction; for # of conc with >1.5 fold up: seven conc 80-1.2 μg/ml
# Experimental: Several concentrations of nalidixic acid were used because the differences in responses between liquid and solid growth were not known. Light production of 100 μl duplicate cultures at 37° C. was quantitated using a 96 well plate luminometer (Luminoskan Ascent, Labsystems). […] It should be noted that the liquid medium tests were not corrected for growth inhibition by nalidixic acid.
# [1] = system: luxCDABE gene fusions in lexAind host; assay: Mitomycin C and nalidixic acid responses in lexAind host; format: cell-based, E. coli; conditions: for NA Ratio, 2 hr 10 ug/ml: lexAind host
# Experimental: In addition, the effect of a lexAind mutation was tested to determine if any of these were part of the SOS regulon. The expectation is that SOS regulon member will be induced by both nalidixic acid and mitomycin C in a manner that is dependent on lexA function (Walker, G. C., (1996) Escherichia coli and Salmonella: Cellular and Molecular Biology ASM Press). […] This is consistent with the observation of upregulation of the b1728 mRNA transcript upon mitomycin C treatment in a LexA dependent fashion (Fernández de Henestrosa et al. (2000). Mol. Microbiol. 35:1560-1572). Likewise, two Gene fusions, those to oraA and yigN were identified is new members of the SOS regulon (Table 16). […] Negative, non-DNA damage responsive gene fusions were also included (Table 16).
# [2] = 1pxA 1pxB rnhB dnaE fusion (lux-a.pk061.c3)
# [3] = dinG ybiB fusion (lux-a.pk0024.f5)
# [4] = frvR frvX frvB frvA fusion (lux-a.pk046.e6)
# [5] = yfhJ fdx hscA yfhE fusion (lux-a.pk0019.g2)
structure (smiles),measurement,setting,value
"CCn1cc(C(=O)O)c(=O)c2ccc(C)nc21 [Nalidixic acid, nalidixic acid]",Nal conc of max induction in liquid,luxCDABE gene fusions; [2],2.5 µg/mL
same,Liquid expt. NA/LB t = 2 hr,luxCDABE gene fusions; [2],1.82
same,# of conc with >1.5 fold up,luxCDABE gene fusions; [2],3
same,Nal conc of max induction in liquid,luxCDABE gene fusions; b1728 fusion (lux-a.pk033.c5),5 µg/mL
same,Liquid expt. NA/LB t = 2 hr,luxCDABE gene fusions; b1728 fusion (lux-a.pk033.c5),3.67
same,# of conc with >1.5 fold up,luxCDABE gene fusions; b1728 fusion (lux-a.pk033.c5),7
same,Nal conc of max induction in liquid,luxCDABE gene fusions; b1936 fusion (lux-a.pk0019.g1),10 µg/mL
same,Liquid expt. NA/LB t = 2 hr,luxCDABE gene fusions; b1936 fusion (lux-a.pk0019.g1),2.34
same,# of conc with >1.5 fold up,luxCDABE gene fusions; b1936 fusion (lux-a.pk0019.g1),6
same,Nal conc of max induction in liquid,luxCDABE gene fusions; [3],5 µg/mL
same,Liquid expt. NA/LB t = 2 hr,luxCDABE gene fusions; [3],4.18
same,# of conc with >1.5 fold up,luxCDABE gene fusions; [3],6
same,Nal conc of max induction in liquid,luxCDABE gene fusions; dinP fusion (lux-a.pk055.a3),5 µg/mL
same,Liquid expt. NA/LB t = 2 hr,luxCDABE gene fusions; dinP fusion (lux-a.pk055.a3),7.60
same,# of conc with >1.5 fold up,luxCDABE gene fusions; dinP fusion (lux-a.pk055.a3),7
same,Nal conc of max induction in liquid,luxCDABE gene fusions; [4],20 µg/mL
same,Liquid expt. NA/LB t = 2 hr,luxCDABE gene fusions; [4],1.46
same,# of conc with >1.5 fold up,luxCDABE gene fusions; [4],0
same,Nal conc of max induction in liquid,luxCDABE gene fusions; fusion (lux-a.pk0015.d6),20 µg/mL
same,Liquid expt. NA/LB t = 2 hr,luxCDABE gene fusions; fusion (lux-a.pk0015.d6),2.71
same,# of conc with >1.5 fold up,luxCDABE gene fusions; fusion (lux-a.pk0015.d6),6
same,Nal conc of max induction in liquid,luxCDABE gene fusions; oraA fusion (lux-a.pk058.f5),10 µg/mL
same,Liquid expt. NA/LB t = 2 hr,luxCDABE gene fusions; oraA fusion (lux-a.pk058.f5),7.19
same,# of conc with >1.5 fold up,luxCDABE gene fusions; oraA fusion (lux-a.pk058.f5),7
same,Nal conc of max induction in liquid,luxCDABE gene fusions; yaaF fusion (lux-a.pk031.e7),2.5 µg/mL
same,Liquid expt. NA/LB t = 2 hr,luxCDABE gene fusions; yaaF fusion (lux-a.pk031.e7),1.85
same,# of conc with >1.5 fold up,luxCDABE gene fusions; yaaF fusion (lux-a.pk031.e7),3
same,Nal conc of max induction in liquid,luxCDABE gene fusions; [5],1.2 µg/mL
same,Liquid expt. NA/LB t = 2 hr,luxCDABE gene fusions; [5],1.02
same,# of conc with >1.5 fold up,luxCDABE gene fusions; [5],0
same,Nal conc of max induction in liquid,luxCDABE gene fusions; yigN fusion (lux-a.pk046.f11),1.2 µg/mL
same,Liquid expt. NA/LB t = 2 hr,luxCDABE gene fusions; yigN fusion (lux-a.pk046.f11),2.54
same,# of conc with >1.5 fold up,luxCDABE gene fusions; yigN fusion (lux-a.pk046.f11),5
same,"NA Ratio, 2 hr 10 ug/ml",[1]; [2],2.39
same,"NA Ratio, 2 hr 10 ug/ml",[1]; b1728 fusion (lux-a.pk033.c5),0.40
same,"NA Ratio, 2 hr 10 ug/ml",[1]; b1936 fusion (lux-a.pk0019.g1),1.55
same,"NA Ratio, 2 hr 10 ug/ml",[1]; [3],0.97
same,"NA Ratio, 2 hr 10 ug/ml",[1]; fusion (lux-a.pk0015.d6),2.29
same,"NA Ratio, 2 hr 10 ug/ml","[1]; lacZ fusion (65.d4), negative control",1.05
same,induction of b1728 promoter-luxCDABE fusion,[1]; lexAind host strain (FIG. 9),not induced
same,"NA Ratio, 2 hr 10 ug/ml",[1]; oraA fusion (lux-a.pk058.f5),1.06
same,"NA Ratio, 2 hr 10 ug/ml",[1]; yaaF fusion (lux-a.pk031.e7),1.19
same,"NA Ratio, 2 hr 10 ug/ml","[1]; yciG fusion (lux-a.pk006.b4), negative control",0.67
same,"NA Ratio, 2 hr 10 ug/ml",[1]; yigN fusion (lux-a.pk046.f11),0.59
